Source: US7288273B1, “Gallotannins and ellagitannins as regulators of cytokine release” (The Penn State Research Foundation, priority 2000, dated 2007)

Assays:
[1] = tested on: LPS induced TNF-α secretion from h-PBMC's; test: Inhibition of LPS induced TNF-α secretion from h-PBMC's; assay type: cell-based, human; conditions: for TNF-α secreted in the presence of LPS and 17c-20c: compound 10 μg/mL added after 45 minutes, h-PBMC's 3rd subject; for TNF-α secreted in the presence of LPS and 17c-20c / TNF-α secreted in the presence of LPS and 19c / 20c / TNF-α secreted in the presence of LPS and 18c-20c: ± SD; for TNF-α secreted in the presence of LPS and 19c / 20c: 8 h incubation; for TNF-α secreted in the presence of LPS and 19c / 20c / TNF-α secreted in the presence of LPS and 18c-20c: 4th subject
Method: In the second study, the ability of compounds 17c-20c to inhibit LPS induced TNF-α production in h-PBMC's was investigated using four assays. The first experiment was a kinetics run in which the h-PBMC's were initially incubated with a fixed concentration of LPS (5 μg/mL) for 45 minutes. This incubation period was followed by addition of a fixed concentration (10 μg/mL) of compounds 17c-20c. The cells were harvested at varying intervals of time. […] The optimal time was determined by comparing the amount of TNF-α secreted by LPS alone to the amount of TNF-α secreted by LPS and substrate at each time point.
The second assay determined the minimum amount of substrate required for inhibition. LPS (10 μg/mL) was incubated with h-PBMC's for 45 minutes followed by addition of 17c-20c at varying concentrations. The cell culture supernatant was harvested after 8 hours. The inherent variability in using cells from different subjects, or in the day of assay, made it difficult to compare overall effectiveness of inhibitors. Therefore, to more easily identify the concentration at which maximum inhibition occurs for a given compound, the TNF-α secretion was normalized by calculating a percent of maximum secretion value (based on LPS alone) (FIG. 13). […] The optimal concentration for inhibition varied between substrates, but the general dose response trend was the same. Overall, the maximum inhibition was 45% for 18c and 20c, and 25% for 19c.
The third assay investigated the ability of 17c, 18c, and 20c to inhibit LPS induced TNF-α secretion using a smaller dosage of LPS (5 μg/mL) (FIG. 14). Again, the response was dose dependent. The maximum inhibition was 45% for 17c and 20c, and 35% for 18c.
In the fourth assay the varying concentrations of substrates 17c-20c and LPS were added at the same time to determine the effect of addition sequence on the inhibition of TNF-α secretion (FIG. 15). The addition time seemed to make a difference in the overall dose response trend. However, maximum inhibition was the same as when the compounds were added 45 minutes after LPS addition (about 40% for each compound).
Finally, in the last study, analogs 19c and 20c were again tested for inhibition LPS induced TNF-α secretion (FIG. 17). In this assay a smaller dose of LPS was used to determine if inhibition was greater when much lower doses of LPS were present. The substrates were added 45 minutes after LPS addition and the cells were harvested after 8 hours. It doesn't appear as though the substrates are better inhibitors when smaller amounts of LPS are used, again perhaps reflecting receptor saturation with LPS at this dosage.

[2] = tested on: IL-1β secretion from h-PBMC's; test: IL-1β release from h-PBMC's, ELISA; assay type: cell-based, human; conditions: for IL-1β secreted in the presence of 17c-20c: h-PBMC's 2nd subject, ± SD
Method: Authentic samples of agrimoniin and coriariin A were supplied by Professor Yoshida (Okayama University, Japan). Dimeric gallotannin (analog of coriariin A) and β-D-PGG were synthesized as described. LPS (E. coli 055:B5 phenol extract, MW range 50-100 KD). Ficoll-Histopaque (ρ=1.077 g/mL), Fetal Bovine Serum, sterile, hybridoma tested (FCS), gentamicin 10 mg/mL. L-glutamine, 200 mM. Dextran B-512 Leuconostoc Av M.W. 580000, and Trypan Blue stain were purchased from Sigma. Hanks Buffer Saline Solution 1×, with phenol red, mediatech (HBSS) and RPMI 1640 1×, mediatech were purchased from Fisher Scientific, Human IL-1β and TNF-α Enzyme Linked ImmunoSorbent Assay (ELISA) kits were purchased from R and D Systems, Minneapolis, Minn. Fresh heparinized blood was obtained from health human subjects (ages 20-34).
Dose-Response Data: General Procedure. H-PBMC's were isolated by reported procedures (10. 18). The cells counted and the viability was determined by Trypan Blue exclusion (typically, viability exceeded 95%). The concentration of the cells in the 0.5 mL wells was adjusted to 1×10^6 cells/well by diluting with the required amount of RPMI.
The appropriate amount of a tannin (or LPS) stock solution in HBSS was added to each well to furnish the concentration values reported in the Figures. […] The culture plates were incubated in a 5% CO2, 37° C. humidified incubator for the indicated time. At the end of the time interval, 450 μL of the culture supernatant from each well was harvested, after centrifugation at 400 g, 25° C., 10 min. with brake, and stored at −78° C. pending ELISA analysis for the cytokine(s). The ELISA assays were conducted per the manufacturer's instructions using standard calibration curves to calculate cytokine concentration from observed absorbance readings. The cytokine values reported are averages of three runs±SE.
The dimeric antitumor ellagitannins coriariin A and agrimoniin, the monomeric gallotannin β-D-pentagalloylglucose (β-D-PGG) and the dimeric gallotannin of this invention were all examined in this study. The dimeric gallotannin is an analog of coriariin A and is identical to the parent ellagitannin except that the galloyl rings at O(4) and O(6) are not joined in a hexahydroxydiphenoyl (HHDP) linkage. h-PBMC's were incubated with the compound under investigation for the indicated length of time and the amounts of both IL-1β and, independently, TNF-α, present in the culture supernatants was determined using commercially available ELISA kits. In each case, LPS was used as a positive control while untreated cells were reserved as negative controls.
In the third study, compounds 17c-20c were examined for their ability to induce secretion of IL-1β from h-PBMC's (FIG. 16). Recall from the introduction that the cytokine IL-1β is also released in an LPS-stimulated septic shock response. The compounds that cause very little secretion of IL-1β or none at all will be the optimal compounds for potential septic shock therapeutics because they will be less likely themselves to induce a septic shock response.

[3] = LPS 10 μg/mL, substrate added after 45 minutes, 8 hours
[4] = compound 0.6 μM added 45 minutes after LPS 10 μg/mL, 8 hours
[5] = compound 2.9 μM added 45 minutes after LPS 10 μg/mL, 8 hours
[6] = compound 5.9 μM added 45 minutes after LPS 10 μg/mL, 8 hours
[7] = compound 11.7 μM added 45 minutes after LPS 10 μg/mL, 8 hours
[8] = compound 23.5 μM added 45 minutes after LPS 10 μg/mL, 8 hours

SMILES	TNF-α secreted in the presence of LPS and 17c-20c ([1]; LPS 5 μg/mL, time 1 h) [pg/mL]	TNF-α secreted in the presence of LPS and 17c-20c ([1]; LPS 5 μg/mL, time 4 h) [pg/mL]	TNF-α secreted in the presence of LPS and 17c-20c ([1]; LPS 5 μg/mL, time 8 h) [pg/mL]	TNF-α secreted in the presence of LPS and 17c-20c ([1]; LPS 5 μg/mL, time 12 h) [pg/mL]	TNF-α secreted in the presence of LPS and 17c-20c ([1]; LPS 5 μg/mL, time 16 h) [pg/mL]	TNF-α secreted in the presence of LPS and 17c-20c ([1]; LPS 5 μg/mL, time 24 h) [pg/mL]	maximum inhibition of LPS induced TNF-α secretion ([1]; LPS 5 μg/mL, 3rd subject) [%]	maximum inhibition of LPS induced TNF-α secretion [1, 3] [%]	TNF-α secreted in the presence of LPS and 18c-20c [1, 4] [% max. response]	TNF-α secreted in the presence of LPS and 18c-20c [1, 5] [% max. response]	TNF-α secreted in the presence of LPS and 18c-20c [1, 6] [% max. response]	TNF-α secreted in the presence of LPS and 18c-20c [1, 7] [% max. response]	TNF-α secreted in the presence of LPS and 18c-20c [1, 8] [% max. response]	IL-1β secreted in the presence of 17c-20c ([2]; compound 0.6 μM) [pg/mL]	IL-1β secreted in the presence of 17c-20c ([2]; compound 2.9 μM) [pg/mL]	IL-1β secreted in the presence of 17c-20c ([2]; compound 5.9 μM) [pg/mL]	IL-1β secreted in the presence of 17c-20c ([2]; compound 11.8 μM) [pg/mL]	IL-1β secreted in the presence of 17c-20c ([2]; compound 17.6 μM) [pg/mL]	IL-1β secreted in the presence of 17c-20c ([2]; compound 23.5 μM) [pg/mL]	IL-1β secreted in the presence of 17c-20c ([2]; compound 29.4 μM) [pg/mL]	other results
O=C(CCCCCC(=O)OC1O[C@H](COC(=O)c2cc(O)c(O)c(O)c2)[C@@H](OC(=O)c2cc(O)c(O)c(O)c2)[C@H](OC(=O)c2cc(O)c(O)c(O)c2)[C@H]1OC(=O)c1cc(O)c(O)c(O)c1)OC1O[C@H](COC(=O)c2cc(O)c(O)c(O)c2)[C@@H](OC(=O)c2cc(O)c(O)c(O)c2)[C@H](OC(=O)c2cc(O)c(O)c(O)c2)[C@H]1OC(=O)c1cc(O)c(O)c(O)c1 (mixture of isomers) [Compound 20c, 1,1′-O-2,2′,3,3′,4,4′,6,6′-Tetrakis(3,4,5-trihyroxybenzoyl)-β,β′-D,D′-glucopyranosylpimelate]	243.6 ± 52.8	2370.1 ± 95.7	2889.8 ± 383.2	2313.2 ± 339.1	2628.4 ± 571.0	2356.4 ± 400.3	45	45	89.8 ± 9.2	65.6 ± 8.3	67.1 ± 8.9	63.3 ± 4.7	63.9 ± 13.9	0	0	0	184.1	230.0	0	204.2	TNF-α secreted in the presence of LPS and 19c / 20c ([1]; compound 0.6 μM added 45 minutes after LPS 1 μg/mL): 109.1 ± 14.9 % max. response; TNF-α secreted in the presence of LPS and 19c / 20c ([1]; compound 1.8 μM added 45 minutes after LPS 1 μg/mL): 110.6 ± 1.3 % max. response; TNF-α secreted in the presence of LPS and 19c / 20c ([1]; compound 3.5 μM added 45 minutes after LPS 1 μg/mL): 62.4 ± 10.2 % max. response; TNF-α secreted in the presence of LPS and 19c / 20c ([1]; compound 5.9 μM added 45 minutes after LPS 1 μg/mL): 69.5 ± 27.9 % max. response; TNF-α secreted in the presence of LPS and 19c / 20c ([1]; compound 11.8 μM added 45 minutes after LPS 1 μg/mL): 98.4 ± 12.1 % max. response; IL-1β secretion from h-PBMC's, in words ([2]; h-PBMC's): lowest amounts of IL-1β production
O=C(OC[C@H]1O[C@@H](OC(=O)c2cccc(C(=O)O[C@@H]3O[C@H](COC(=O)c4cc(O)c(O)c(O)c4)[C@@H](OC(=O)c4cc(O)c(O)c(O)c4)[C@H](OC(=O)c4cc(O)c(O)c(O)c4)[C@H]3OC(=O)c3cc(O)c(O)c(O)c3)c2)[C@H](OC(=O)c2cc(O)c(O)c(O)c2)[C@@H](OC(=O)c2cc(O)c(O)c(O)c2)[C@@H]1OC(=O)c1cc(O)c(O)c(O)c1)c1cc(O)c(O)c(O)c1 [Compound 18c, 1,1′-O-2,2′,3,3′,4,4′,6,6′-Tetrakis(3,4,5-trihydroxybenzoyl)-β,β′-D-glucopyranosylisophthalate]	594.6 ± 93.2	1523.3 ± 472.8	2829.3 ± 52.6	2448.1 ± 43.6	3956.3 ± 524.5	2002.1 ± 95.1	35	45	69.0 ± 4.9	71.9 ± 15.2	59.5 ± 9.5	54.4 ± 15.4	60.6 ± 9.9	0	4.7 ± 8.1	3.2 ± 5.5	34.1 ± 48.2	1266.0 ± 78.3	631.2 ± 94.4	2113.4 ± 393.0	
